In patent publication US7045532B2 (Millennium Pharmaceuticals, Inc., priority 1999, dated 2006):
Where two headings read alike, the source gives them in different places.

Target: T1, ACE-2 (Homo sapiens, UniProt Q9BYF1)
T1 construct: a stop codon inserted after the serine immediately preceding the transmembrane domain; made in house; host or cells: CHO K1 cells (transient transfection, purified from conditioned medium)
Test: ACE-2 Competitive Substrate Assay (ACS Assay)
Assay type: biochemical

[1] = Ki class, compounds tested in 5% DMSO, 12 concentrations, read-out: Human ACE-2 Activity
[2] = Ki class, compounds tested in 5% DMSO, 12 compound concentrations, Ki=Kiapp/(1+[S]/Km), read-out: Human ACE-2 Activity
[3] = Table 3, very good ACE-2 inhibiting compounds, species not given, read-out: ACE-2 Activity, Ki

T1 sequence (Q9BYF1 18-740 limits assumed): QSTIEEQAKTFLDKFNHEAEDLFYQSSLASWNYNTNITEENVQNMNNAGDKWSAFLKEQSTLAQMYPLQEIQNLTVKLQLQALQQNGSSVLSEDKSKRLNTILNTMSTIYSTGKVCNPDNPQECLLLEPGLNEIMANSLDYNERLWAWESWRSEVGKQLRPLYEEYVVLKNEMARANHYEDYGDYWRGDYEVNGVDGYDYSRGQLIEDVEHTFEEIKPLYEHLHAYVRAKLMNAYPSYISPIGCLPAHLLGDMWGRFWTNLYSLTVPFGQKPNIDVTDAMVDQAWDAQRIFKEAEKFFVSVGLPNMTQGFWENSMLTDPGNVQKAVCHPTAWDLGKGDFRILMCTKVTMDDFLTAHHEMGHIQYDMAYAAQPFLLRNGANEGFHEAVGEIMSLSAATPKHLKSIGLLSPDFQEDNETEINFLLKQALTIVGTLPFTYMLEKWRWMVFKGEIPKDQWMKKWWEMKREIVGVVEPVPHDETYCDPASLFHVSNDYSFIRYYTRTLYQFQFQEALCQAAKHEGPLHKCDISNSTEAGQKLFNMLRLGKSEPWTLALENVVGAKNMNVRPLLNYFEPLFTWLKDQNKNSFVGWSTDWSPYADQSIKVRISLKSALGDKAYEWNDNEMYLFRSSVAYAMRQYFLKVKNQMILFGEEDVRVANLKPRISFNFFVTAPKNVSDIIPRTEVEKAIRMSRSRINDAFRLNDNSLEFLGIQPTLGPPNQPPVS

Row | SMILES | Ki [1] | Ki [2] | Ki [3]
1 | CC(C)CC(N[C@@H](Cc1nc2ccccc2n1Cc1ccccc1)C(=O)O)C(=O)O (single isomer, unassigned) [GR, 2-[2-(1-Benzyl-1H-benzoimidazol-2-yl)-1-carboxy-ethylamino]-4-methyl-pentanoic acid] | > 500 nM | – | –
2 | CC(C)CC(N[C@@H](Cc1csc(N)n1)C(=O)O)C(=O)O (single isomer, unassigned) [GU, 2-[2-(2-Amino-thiazol-4-yl)1-carboxy-ethylamino]-4-methyl-pentanoic acid] | > 500 nM | – | –
3 | CC(C)CC(N[C@@H](Cc1cncn1Cc1ccc(Cl)c(Cl)c1)C(=O)O)C(=O)O (single isomer, unassigned) [GX] | – | > 500 nM | –
4 | Cc1nc(C[C@H](NC(CC(C)C)C(=O)O)C(=O)O)cs1 (single isomer, unassigned) [GY, 2-[1-Carboxy-2-(2-methyl-thiazol-4-yl)-ethylamino]-4-methyl-pentanoic acid] | – | > 500 nM | –
5 | CC(C)CC(N[C@@H](Cc1cncn1Cc1ccc(C#N)cc1)C(=O)O)C(=O)O (single isomer, unassigned) [HB, 2-[1-Carboxy-2-[3-(4-cyano-benzyl)-3H-imidazol-4-yl]-ethylamino)4-methyl-pentanoic acid] | – | > 500 nM | –
6 | CC(C)CC(N[C@@H](Cc1cncn1Cc1cccc(Cl)c1)C(=O)O)C(=O)O (single isomer, unassigned) [HD, 2-{1-Carboxy-2-[3-(3-chloro-benzyl)-3H-imidazol-4-yl]-ethylamino)4-methyl-pentanoic acid] | – | > 500 nM | –
7 | CC(C)CC(N[C@@H](Cc1cncn1Cc1cc(Cl)cc(Cl)c1)C(=O)O)C(=O)O (single isomer, unassigned) [HF, 2-[1-Carboxy-2-[3-(3,5-dichloro-benzyl)-3H-imidazol-4-yl]-ethylamino)4-methyl-pentanoic acid] | – | 100 to 500 nM | –
8 | Cc1ccc(Cn2cncc2C[C@H](NC(CC(C)C)C(=O)O)C(=O)O)cc1 (single isomer, unassigned) [HH, 2-[1-Carboxy-2-[3-(4-methyl-benzyl)-3H-imidazol-4-yl]-ethylamino)4-methyl-pentanoic acid] | – | 100 to 500 nM | –
9 | CCCCc1ccc(Cn2cncc2C[C@H](NC(CC(C)C)C(=O)O)C(=O)O)cc1 (single isomer, unassigned) [HI, 2-[2-[3-(4-Butyl-benzyl)-3H-imidazol-4-yl]-1-carboxy-ethylamino]-4-methyl-pentanoic acid] | – | 100 to 500 nM | –
10 | CCCCc1ccc(Cn2cncc2C[C@H](NC(CC(C)C)C(=O)O)C(=O)O)cc1 (single isomer, unassigned) [HJ, 2-[2-[3-(4-Butyl-benzyl)-3H-imidazol-4-yl]-1-carboxy-ethylamino]-4-methyl-pentanoic acid] | – | > 500 nM | –
11 | Cc1ccc(Cn2cncc2C[C@H](NC(CC(C)C)C(=O)O)C(=O)O)cc1C (single isomer, unassigned) [HL, 2-[1-Carboxy-2-[3-(3,4-dimethyl-benzyl)-3H-imidazol-4-yl]-ethylamino]4-methyl-pentanoic acid] | – | > 500 nM | –
12 | CC(C)CC(N[C@@H](Cc1csc(NCc2ccccc2)n1)C(=O)O)C(=O)O (single isomer, unassigned) [HM, 2-[2-(2-Benzylamino-thiazol-4-yl)-1-carboxy-ethylamino]-4-methyl-pentanoic acid] | – | > 500 nM | –
13 | Cc1cccc(Cn2cncc2C[C@H](NC(CC(C)C)C(=O)O)C(=O)O)c1 (single isomer, unassigned) [HP, 2-[1-Carboxy-2-[3-(3-methyl-benzyl)-3H-imidazol-4-yl]-ethylamino]4-methyl-pentanoic acid] | – | > 500 nM | –
14 | Cc1cc(C)cc(Cn2cncc2C[C@H](NC(CC(C)C)C(=O)O)C(=O)O)c1 (single isomer, unassigned) [HR, 2-[1-Carboxy-2-[3-(3,5-dimethyl-benzyl)-3H-imidazol-4-yl]-ethylamino)4-methyl-pentanoic acid] | – | > 500 nM | –
15 | CC(C)CC(N[C@@H](Cc1cncn1Cc1ccc(OC(F)(F)F)cc1)C(=O)O)C(=O)O (single isomer, unassigned) [HT, 2-[1-Carboxy-2-[3-(4-trifluoromethoxy-benzyl)-3H-imidazol-4-yl]-ethylamino]-4-methyl-pentanoic acid] | – | > 500 nM | –
16 | CC(C)CC(N[C@@H](Cc1cncn1Cc1ccc(C(C)C)cc1)C(=O)O)C(=O)O (single isomer, unassigned) [HV, 2-[1-Carboxy-2-[3-(4-isopropyl-benzyl)-3H-imidazol-4-yl]-ethylamino)4-methyl-pentanoic acid] | – | > 500 nM | –
17 | Cc1ccccc1Cn1cncc1C[C@H](NC(CC(C)C)C(=O)O)C(=O)O (single isomer, unassigned) [HW, 2-[1-Carboxy-2-[3-(2-methyl-benzyl)-3H-imidazol-4-yl]-ethylamino]4-methyl-pentanoic acid] | – | 100 to 500 nM | –

Row | SMILES | Ki [1] | Ki [2] | Ki [3]
18 | Cc1ccccc1Cn1cncc1C[C@H](NC(CC(C)C)C(=O)O)C(=O)O (single isomer, unassigned) [HX, 2-[1-Carboxy-2-[3-(2-methyl-benzyl)-3H-imidazol-4-yl]-ethylamino]4-methyl-pentanoic acid] | – | > 500 nM | –
19 | CC(C)CC(N[C@@H](Cc1cncn1Cc1ccc(C(C)(C)C)cc1)C(=O)O)C(=O)O (single isomer, unassigned) [HZ, 2-[2-[3-(4-tert-Butyl-benzyl)-3H-imidazol-4-yl]-1-carboxy-ethylamino]-4-methyl-pentanoic acid] | – | > 500 nM | –
20 | CC(C)CC(N[C@@H](Cc1cncn1Cc1ccccc1CS(=O)(=O)c1ccccc1)C(=O)O)C(=O)O (single isomer, unassigned) [IA, 2-[2-[3-(2-Benzenesulfonylmethyl-benzyl)-3H-imidazol-4-yl]-1-carboxy-ethylamino]-4-methyl-pentanoic acid] | – | > 500 nM | –
21 | CC(C)CC(N[C@@H](Cc1cncn1Cc1ccc([N+](=O)[O-])cc1)C(=O)O)C(=O)O (single isomer, unassigned) [IC, 2-[1-Carboxy-2-[3-(4-nitro-benzyl)-3H-imidazol-4-yl]-ethylamino]-4-methyl-pentanoic acid] | – | < 100 nM | 50 to 100 nM
22 | CC(C)CC(N[C@@H](Cc1cncn1Cc1ccc([N+](=O)[O-])cc1)C(=O)O)C(=O)O (single isomer, unassigned) [ID, 2-[1-Carboxy-2-[3-(4-nitro-benzyl)-3H-imidazol-4-yl]-ethylamino]-4-methyl-pentanoic acid] | – | > 500 nM | –
23 | CC(C)CC(N[C@@H](Cc1cncn1Cc1ccccc1-c1ccccc1)C(=O)O)C(=O)O (single isomer, unassigned) [IE] | – | > 500 nM | –
24 | CC(C)CC(N[C@@H](Cc1cncn1Cc1cc(C(F)(F)F)cc(C(F)(F)F)c1)C(=O)O)C(=O)O (single isomer, unassigned) [IG, 2-[2-[3-(3,5-Bis-trifluoromethyl-benzyl)-3H-imidazol-4-yl]-1-carboxy-ethylamino]-4-methyl-pentanoic acid] | – | > 500 nM | –
25 | CC(C)CC(N[C@@H](Cc1cncn1Cc1ccc(F)cc1)C(=O)O)C(=O)O (single isomer, unassigned) [IJ, 2-[1-Carboxy-2-[3-(4-fluoro-benzyl)-3H-imidazol-4-yl]-ethylamino]4-methyl-pentanoic acid] | – | > 500 nM | –
26 | COc1cccc(Cn2cncc2C[C@H](NC(CC(C)C)C(=O)O)C(=O)O)c1OC (single isomer, unassigned) [IO, 2-[1-Carboxy-2-[3-(2,3-dimethoxy-benzyl)-3H-imidazol-4-yl]-ethylamino)4-methyl-pentanoic acid] | – | < 100 nM | 50 to 100 nM
27 | COc1cccc(Cn2cncc2C[C@H](NC(CC(C)C)C(=O)O)C(=O)O)c1OC (single isomer, unassigned) [IP, 2-[1-Carboxy-2-[3-(2,3-dimethoxy-benzyl)-3H-imidazol-4-yl]-ethylamino)4-methyl-pentanoic acid] | – | > 500 nM | –
28 | Cc1c(Cn2cncc2C[C@H](NC(CC(C)C)C(=O)O)C(=O)O)cccc1-c1ccccc1 (single isomer, unassigned) [IQ, 2-[1-Carboxy-2-[3-(2-methyl-biphenyl-3-ylmethyl)-3H-imidazol-4-yl]-ethylamino]-4-methyl-pentanoic acid] | – | 100 to 500 nM | –
29 | Cc1c(Cn2cncc2C[C@H](NC(CC(C)C)C(=O)O)C(=O)O)cccc1-c1ccccc1 (single isomer, unassigned) [IR, 2-[1-Carboxy-2-[3-(2-methyl-biphenyl-3-ylmethyl)-3H-imidazol-4-yl]-ethylamino)-4-methyl-pentanoic acid] | – | > 500 nM | –
30 | COc1ccc2ccccc2c1Cn1cncc1C[C@H](NC(CC(C)C)C(=O)O)C(=O)O (single isomer, unassigned) [IS, 2-[1-Carboxy-2-[3-(2-methoxy-naphthalen-1-ylmethyl)-3H-imidazol-4-yl]-ethylamino]-4-methyl-pentanoic acid] | – | > 500 nM | –
31 | CC(C)CC(N[C@@H](Cc1cncn1Cc1cccc(F)c1F)C(=O)O)C(=O)O (single isomer, unassigned) [IU, 2-[1-Carboxy-2-[3-(2,3-difluoro-benzyl)-3H-imidazol-4-yl]-ethylamino]4-methyl-pentanoic acid] | – | < 100 nM | 50 to 100 nM
32 | CC(C)CC(N[C@@H](Cc1cncn1Cc1cccc(F)c1F)C(=O)O)C(=O)O (single isomer, unassigned) [IV, 2-[1-Carboxy-2-[3-(2,3-difluoro-benzyl)-3H-imidazol-4-yl]-ethylamino]4-methyl-pentanoic acid] | – | > 500 nM | –
33 | CC(C)CC(N[C@@H](Cc1cncn1Cc1cccc(Cl)c1Cl)C(=O)O)C(=O)O (single isomer, unassigned) [IY, 2-[1-Carboxy-2-[3-(2.3-dichloro-benzyl)-3H-imidazol-4-yl]-ethylamino]4-methyl-pentanoic acid] | – | < 100 nM | –
34 | CC(C)CC(N[C@@H](Cc1cncn1Cc1cccc(C(F)(F)F)c1)C(=O)O)C(=O)O (single isomer, unassigned) [JA, 2-[1-Carboxy-2-[3-(3-trifluoromethyl-benzyl)-3H-imidazol-4-yl]-ethylamino]4-methyl-pentanoic acid] | – | > 500 nM | –
